Experimental data reported in US20140193463A1, “PEPTIDE FOR INHIBITING DIPEPTIDYL-PEPTIDASE IV” (CHINA MEDICAL UNIVERSITY, priority 2013, published 2014).
Residues, ends and D or L forms follow the SMILES beside them.

How the values were obtained:
DPP-IV = DPP-IV (Homo sapiens, UniProt P27487); conditions: previous studies; read-out: IC50 values against DPP-IV; cited from earlier work
[1] = biological target: T1, Dipeptidyl-peptidase IV (D7052, from porcine kidney) (Sus scrofa, UniProt P22411); assay: Determination of DPP-IV-inhibitory activity (Gly-Pro-p-nitroanilide substrate, absorbance 405 nm); format: biochemical; conditions: synthetic peptides and diprotin A, present example (FIG. 4A-4C)
T1 construct: Dipeptidyl-peptidase IV (D7052, from porcine kidney); purchased Sigma-Aldrich D7052; host or cells: porcine kidney (tissue-derived)
T1 sequence (P22411 whole entry): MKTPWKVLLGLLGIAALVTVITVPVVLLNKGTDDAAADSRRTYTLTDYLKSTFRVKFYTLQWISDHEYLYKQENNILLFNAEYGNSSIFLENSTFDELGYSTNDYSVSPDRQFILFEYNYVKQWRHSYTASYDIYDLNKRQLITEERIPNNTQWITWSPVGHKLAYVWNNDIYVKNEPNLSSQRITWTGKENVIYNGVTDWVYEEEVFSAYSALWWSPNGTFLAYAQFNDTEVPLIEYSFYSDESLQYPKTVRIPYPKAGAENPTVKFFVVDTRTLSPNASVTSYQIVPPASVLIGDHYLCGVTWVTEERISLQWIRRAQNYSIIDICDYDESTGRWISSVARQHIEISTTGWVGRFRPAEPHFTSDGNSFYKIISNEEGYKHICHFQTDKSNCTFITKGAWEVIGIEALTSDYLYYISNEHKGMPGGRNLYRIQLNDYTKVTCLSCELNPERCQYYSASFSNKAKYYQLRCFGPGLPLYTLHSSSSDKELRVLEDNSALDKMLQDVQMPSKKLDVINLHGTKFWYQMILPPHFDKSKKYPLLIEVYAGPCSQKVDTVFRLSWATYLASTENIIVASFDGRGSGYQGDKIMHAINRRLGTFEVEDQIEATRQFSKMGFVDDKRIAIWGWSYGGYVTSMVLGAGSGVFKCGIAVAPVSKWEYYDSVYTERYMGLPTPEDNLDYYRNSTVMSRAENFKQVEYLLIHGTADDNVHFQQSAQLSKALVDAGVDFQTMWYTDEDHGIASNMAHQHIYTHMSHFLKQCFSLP
Protocol: Atlantic salmon (Salmo salar) fish skins, processing byproducts recovered from fresh skin-off fillets, were supplied by Albion Fisheries Ltd. (Vancouver, BC, Canada). The fish skins were transferred on ice, vacuum packed, and stored at −25° C. until use. Three food-grade proteolytic enzymes were donated by Neova Technologies Inc. (Abbotsford, BC, Canada). Alcalase 2.4 L FG (from Bacillus licheniformis, 2.4 AU/g) and Flavourzyme 1000 L (from Aspergillus oryzae, 1000 LAPU/g) were products from Novo-zymes North America Inc. (Salem, N.C., […]), whereas bromelain (from pineapple stem, 2000 GDU/g) was manufactured by Ultra Bio-Logics Inc. (Montreal, QC, Canada), Dipeptidyl-peptidase IV (D7052, from porcine kidney), Gly-Prop-nitroanilide hydrochloride, trichloroacetic acid (TCA), L-leucine, and diprotin A were purchased from Sigma-Aldrich (St. Louis, Mo.). Trinitrobenzenesulfonic acid (TNBS) was obtained from Fluka Biochemika Oakville ON, Canada). Other chemicals and reagents used were of analytical grade and commercially available,
DPP-IV activity determination was performed in 96-well microplates. In order to measure an increment in absorbance at 405 nm, Gly-Pro-p-nitroanilide is used as a DPP-IV substrate. […] The absorbance of the resulting solution was measured at 405 nm with a microplate reader (iEMS reader MF; Labsystems, Helsinki, Finland).

Sequence of DPP-IV (P27487 whole entry, species assumed): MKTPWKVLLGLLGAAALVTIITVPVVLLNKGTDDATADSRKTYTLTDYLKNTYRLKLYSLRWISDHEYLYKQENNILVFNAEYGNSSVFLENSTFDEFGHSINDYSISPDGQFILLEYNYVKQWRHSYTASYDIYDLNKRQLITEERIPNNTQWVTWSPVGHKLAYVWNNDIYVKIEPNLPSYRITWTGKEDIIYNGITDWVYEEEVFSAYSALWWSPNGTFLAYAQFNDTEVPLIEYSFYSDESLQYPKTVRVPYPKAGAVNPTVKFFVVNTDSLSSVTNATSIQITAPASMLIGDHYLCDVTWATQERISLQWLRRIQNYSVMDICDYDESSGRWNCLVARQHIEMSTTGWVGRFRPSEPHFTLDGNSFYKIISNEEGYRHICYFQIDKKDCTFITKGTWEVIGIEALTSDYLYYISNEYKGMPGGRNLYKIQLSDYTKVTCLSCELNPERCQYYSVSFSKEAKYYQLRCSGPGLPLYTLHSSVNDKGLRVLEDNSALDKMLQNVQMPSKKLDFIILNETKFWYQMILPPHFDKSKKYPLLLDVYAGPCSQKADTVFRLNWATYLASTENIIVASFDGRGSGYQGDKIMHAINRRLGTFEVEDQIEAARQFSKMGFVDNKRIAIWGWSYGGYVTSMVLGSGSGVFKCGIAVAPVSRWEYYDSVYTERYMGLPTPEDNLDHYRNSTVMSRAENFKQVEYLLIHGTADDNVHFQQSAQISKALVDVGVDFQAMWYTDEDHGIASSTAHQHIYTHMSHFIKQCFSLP

VAGTWY [Val-Ala-Gly-Thr-Trp-Tyr, peptide prepared from β-lactoglobulin]
IC50 (DPP-IV): 174 µM

C[C@H](NC(=O)[C@@H]1CCCN1C(=O)CN)C(=O)N[C@@H](CCC(=O)O)C(=O)O [Gly-Pro-Ala-Glu] (H-GPAE-OH; N-terminus and C-terminus assumed)
IC50 [1]: 49.6 µM

C[C@H](NC(=O)CNC(=O)[C@@H]1CCCN1C(=O)CN)C(=O)O [Gly-Pro-Gly-Ala] (H-GPGA-OH; N-terminus and C-terminus assumed)
IC50 [1]: 41.9 µM

Ile-Pro-Ala [peptide prepared from β-lactoglobulin]
IC50 (DPP-IV): 49 µM
